Test results: patent US20250179559A1, “DUAL-LUCIFERASE REPORTER GENE DETECTION SYSTEM, FLUORESCENCE DETECTION KIT, AND METHOD FOR DETECTING LUMINESCENT SIGNAL OF LUCIFERASE” (BGI SHENZHEN, priority 2022, published 2025)

Experiments:
[1] = system: Gaussia luciferase mutant G2-F8; test: Luminescence intensity of substrates with Gaussia luciferase mutant G2-F8; type: biochemical, Gaussia princeps; conditions: mutant G2-F8, among tested substrates
Experimental: (§1) The two luciferases were diluted to a concentration of 1 μg/mL with a diluent (50 mM Tris-HCl pH 8.0, 100 mM NaCl, 0.1% (v/v) Tween-20), and 10 μL of each luciferase was taken and added to a black 96-well plate. The substrate was diluted to 10 μM with the same diluent, 90 μL of the substrate was taken add into the 96-well plate containing the above luciferases (90 μL/well), and the luminescence intensity was read by using a light-emitting module of a microplate reader.
(§2) According to the method as described in Example 1, an expression vector containing the gene of the Gaussia luciferase mutant and the gene of the Pleuromamma xiphias luciferase mutant was constructed, a recombinant strain was constructed, the mutant-type luciferases were expressed, and the luminous intensity of substrates and luciferases was detected.

[2] = system: Gaussia luciferase mutant E1-A3; test: Luminescence intensity of substrates with Gaussia luciferase mutant E1-A3; type: biochemical, Gaussia princeps; conditions: mutant E1-A3, among tested substrates
Experimental: as §1, §2

[3] = system: wild-type Gaussia luciferase (WT-Gluc); test: Luminescence intensity of substrates with wild-type Gaussia luciferase; type: biochemical, Gaussia princeps; conditions: for Gluc fluorescence intensity: luciferase 1 μg/mL (10 μL), substrate 10 μM (90 μL), microplate reader; for Gluc relative intensity: percentage relative to wild-type Pleuromamma xiphias luciferase with compound N0, substrate 10 μM
Experimental: (§3) [drawing 6] • (3) According to the conventional methods, such as the method disclosed in PCT/CN2017/082180, an expression vector (plasmid) containing the wild-type Gaussia luciferase gene and the wild-type Pleuromamma xiphias luciferase gene was constructed. The plasmid was transformed into Escherichia coli OrigamiB (DE3), which was coated on a plate, and a single colony was picked from the plate, cultured overnight at 37° C., diluted at a ratio of 1:100 on the next day, transferred to 3 mL of fresh LB medium containing ampicillin resistance (100 μg/mL), cultured with shaking at 37° C. and 200 rpm for 4 hours, and cooled on ice for 1 hour. The inducer IPTG was added at a final concentration of 1 mM and the induction was preformed overnight at 16° C. On the next day, the bacteria were collected by centrifugation, resuspended with 500 μL lysate (50 mM Tris-HCl pH 8.0, 500 mM NaCl, 0.2% lysozyme, PMSF), lysed for 20 minutes at room temperature, frozen with liquid nitrogen and thawed for 3 times, and centrifuged for 30 minutes at 18,000 g. The supernatant was taken, which was purified by using a centrifugal Ni column. The protein eluted by Ni column was dialyzed with dialysis buffer (25 mM Tris, pH 8.0, 250 mM NaCl) at 4° C. overnight. The concentration of luciferase was accurately determined by using a BCA quantitative kit (Thermoscientific™ Pierce™ BCA protein assay kit). The two luciferases were diluted to a concentration of 1 μg/mL with a diluent (50 mM Tris-HCl pH 8.0, 100 mM NaCl, 0.1% (v/v) Tween-20), and 10 μL of each luciferase was taken and added to a black 96-well plate. The substrate was diluted to 10 μM with the same diluent, 90 μL of the substrate was taken add into the 96-well plate containing the above luciferases (90 μL/well), and the luminescence intensity was read by using a light-emitting module of a microplate reader. The test data of the Gaussia luciferase and the Pleuromamma xiphias luciferase on different substrates were shown in Table 1, in which the relative intensity is a percentage relative to the activity of wild-type Pleuromamma xiphias luciferase and compound N0. […] That is, in this dual-luciferase reporter gene detection system, the optimal luminescent combination with high fluorescence brightness and low cross-interference obtained after screening is using f-CTZ to detect the Gaussia luciferase, and using N0 to detect the Pleuromamma xiphias luciferase.

[4] = system: Gaussia luciferase mutant G2-F11; test: Luminescence intensity of substrates with Gaussia luciferase mutant G2-F11; type: biochemical, Gaussia princeps; conditions: mutant G2-F11, among tested substrates
Experimental: as §1, §2

[5] = system: wild-type Pleuromamma xiphias luciferase (WT-Pxluc); test: Luminescence intensity of substrates with wild-type Pleuromamma xiphias luciferase; type: biochemical; conditions: for Pxluc fluorescence intensity: luciferase 1 μg/mL (10 μL), substrate 10 μM (90 μL), microplate reader; for Pxluc relative intensity: percentage relative to wild-type Pleuromamma xiphias luciferase with compound N0, substrate 10 μM
Experimental: as §3

[6] = system: Pleuromamma xiphias luciferase mutant P26-95; test: Luminescence intensity of substrates with Pleuromamma xiphias luciferase mutant P26-95; type: biochemical; conditions: mutant P26-95, among tested substrates
Experimental: as §1
Mutant-Type Pleuromamma xiphias Luciferase P26-95: • d) P26-95: based on SEQ ID NO: 3, the following sites were mutated: G83A, and G84P.
as §2

Structure (SMILES): O=c1c(Cc2ccc(F)cc2)nc2c(Cc3ccccc3)[nH]c(-c3ccc(O)cc3)cn1-2 [f-CTZ]
- fluorescence intensity compared among substrates (in words) [1]: highest fluorescence intensity
- fluorescence intensity compared among substrates (in words) [2]: highest fluorescence intensity
- Gluc fluorescence intensity [3]: 10186.5
- Gluc relative intensity [3]: 6.4%
- fluorescence intensity compared among substrates (in words) ([3]; wild-type Gaussia luciferase, among tested substrates): highest fluorescence intensity
- fluorescence intensity compared among substrates (in words) [4]: highest fluorescence intensity
- Pxluc fluorescence intensity [5]: 69138
- Pxluc relative intensity [5]: 43.2%

Structure (SMILES): Nc1ccc(-c2cn3c(=O)c(Cc4ccc(O)cc4)nc-3c(Cc3ccccc3)[nH]2)cc1 [Substrate N5]
- Gluc fluorescence intensity [3]: 457
- Gluc relative intensity [3]: 0.3%
- Pxluc fluorescence intensity [5]: 4430
- Pxluc relative intensity [5]: 2.8%

Structure (SMILES): O=c1c(Cc2ccc(F)cc2)nc2c(Cc3ccccc3)[nH]c(/C=C/c3ccccc3)cn1-2 [Substrate N8]
- Gluc fluorescence intensity [3]: 12
- Gluc relative intensity [3]: 0.0%
- Pxluc fluorescence intensity [5]: 1426
- Pxluc relative intensity [5]: 0.9%

Structure (SMILES): Nc1ccc(-c2cn3c(=O)c(Cc4ccc(F)cc4)nc-3c(Cc3ccccc3)[nH]2)cc1 [Substrate N6]
- Gluc fluorescence intensity [3]: 15
- Gluc relative intensity [3]: 0.0%
- Pxluc fluorescence intensity [5]: 3464
- Pxluc relative intensity [5]: 2.2%

Structure (SMILES): O=c1c(Cc2ccc(F)cc2)nc2c(Cc3ccccc3)[nH]c(Cc3ccccc3)cn1-2 [Substrate N2]
- Gluc fluorescence intensity [3]: 0
- Gluc relative intensity [3]: 0.0%
- Pxluc fluorescence intensity [5]: 3026
- Pxluc relative intensity [5]: 1.9%

Structure (SMILES): CN(C)c1ccc(-c2cn3c(=O)c(Cc4ccc(F)cc4)nc-3c(Cc3ccccc3)[nH]2)cc1 [Substrate N4]
- Gluc fluorescence intensity [3]: 17
- Gluc relative intensity [3]: 0.0%
- Pxluc fluorescence intensity [5]: 4137
- Pxluc relative intensity [5]: 2.6%

Structure (SMILES): O=c1c(Cc2ccc(O)cc2)nc2c(Cc3ccccc3)[nH]c(/C=C/c3ccccc3)cn1-2 [Substrate N7]
- Gluc fluorescence intensity [3]: 135
- Gluc relative intensity [3]: 0.1%
- Pxluc fluorescence intensity [5]: 4430
- Pxluc relative intensity [5]: 2.8%

Structure (SMILES): O=c1c(Cc2ccc(O)cc2)nc2c(Cc3ccccc3)[nH]c(Cc3ccccc3)cn1-2 [Substrate N1]
- Gluc fluorescence intensity [3]: 0
- Gluc relative intensity [3]: 0.0%
- Pxluc fluorescence intensity [5]: 1173
- Pxluc relative intensity [5]: 0.7%

Structure (SMILES): O=c1c(Cc2ccc(O)cc2)nc2c(Cc3ccccc3)[nH]c(-c3cccc(O)c3)cn1-2 [Substrate N0]
- Gluc fluorescence intensity [3]: 5338
- Gluc relative intensity [3]: 3.3%
- fluorescence intensity compared among substrates (in words) [6]: highest fluorescence intensity
- Pxluc fluorescence intensity [5]: 160037
- Pxluc relative intensity [5]: 100%
- fluorescence intensity compared among substrates (in words) ([5]; wild-type Pleuromamma xiphias luciferase, among tested substrates): highest fluorescence intensity

Structure (SMILES): CN(C)c1ccc(-c2cn3c(=O)c(Cc4ccc(O)cc4)nc-3c(Cc3ccccc3)[nH]2)cc1 [Substrate N3]
- Gluc fluorescence intensity [3]: 263
- Gluc relative intensity [3]: 0.2%
- Pxluc fluorescence intensity [5]: 1520
- Pxluc relative intensity [5]: 0.9%
